According to ChEMBL document CHEMBL5523711, “Design, synthesis, and bioevaluation of SOS1 PROTACs derived from pyrido[2,3-d]pyrimidin-7-one-based SOS1 inhibitor” (Bioorg Med Chem Lett, 2024):

Assays:
Format in all cases: functional, cell-based
[1] = test system: SW-620; assay: Antiproliferative activity against human SW620 cells harboring KRAS G12V mutant assessed as inhibition of cell growth
[2] = test system: A549; assay: Antiproliferative activity against human A549 cells harboring KRAS G12S mutant assessed as inhibition of cell growth
[3] = test system: DLD-1; assay: Antiproliferative activity against human DLD-1 cells harboring KRAS G13D mutant assessed as inhibition of cell growth

SMILES: COc1cc2nc(C)nc(N[C@H](C)c3cc(N)cc(C(F)(F)F)c3)c2cc1O[C@H]1CCOC1
- IC50 [1]: 50.5 nM
- IC50 [2]: 106 nM
- IC50 [3]: 169 nM

SMILES: COc1ccc(C(=O)N2CCC3(CCC(CN4CCN(C(=O)[C@H]5CC[C@H](c6cc7c(N[C@H](C)c8cc(N)cc(C(F)(F)F)c8)ncnc7n(C)c6=O)CC5)CC4)CC3)CC2)cc1N1CCC(=O)NC1=O
- IC50 [1]: 36.7 nM
- IC50 [2]: 52.2 nM
- IC50 [3]: 107 nM
